Measurements from US12570617B2 (Kyungpook National University Industry-Academic Cooperation …, priority 2020, dated 2026).

Assays:
[1] = target: T1, ghrelin receptor (Homo sapiens, UniProt Q92847); assay: Intracellular calcium influx in HEK293 cells overexpressing a ghrelin receptor; type: cell-based; parameters: host or cells: HEK293 (ATCC); details: read-out: EC50, concentration capable of inducing 50% intracellular calcium influx
Description: Human embryonic kidney 293 (HEK293) cells were purchased from ATCC and cultured in a DMEM medium comprising 10% FBS at 37° C. and in 5% CO2.
After treating the cells with 100 ul of a wash buffer, fluorescently labeled intracellular calcium was imaged at an excitation wavelength of 485 nm and an emission wavelength of 520 nm for 1 minute at a shutter interval of 10 seconds under a laser scanning confocal microscope equipped with a temperature and humidity control equipment. […] Intracellular calcium fluorescence intensity by treatment with compounds was quantified by calculating same based on the fluorescence intensity when not treated with compounds.
Target sequence in this assay (Q92847 whole entry): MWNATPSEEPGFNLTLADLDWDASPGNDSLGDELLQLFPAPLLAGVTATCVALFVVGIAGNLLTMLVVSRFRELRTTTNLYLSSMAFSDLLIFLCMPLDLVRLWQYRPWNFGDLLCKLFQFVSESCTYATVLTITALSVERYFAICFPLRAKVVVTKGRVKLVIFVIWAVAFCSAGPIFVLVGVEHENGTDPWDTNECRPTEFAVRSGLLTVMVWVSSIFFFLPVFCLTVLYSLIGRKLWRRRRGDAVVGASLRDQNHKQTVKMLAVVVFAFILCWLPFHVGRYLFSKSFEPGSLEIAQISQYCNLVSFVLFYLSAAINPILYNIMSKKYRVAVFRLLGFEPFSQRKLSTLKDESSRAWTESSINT

[2] = test system: postoperative ileus (POI) mouse model; assay: Delayed gastric emptying in postoperative ileus (POI) mouse model; type: in vivo; details: POI mice, oral 10, 20, 30 mg/kg 20 hours after POI surgery
Description: (§1) Mice aged 6-8 weeks were fasted for one day and then anesthetized with a mixture of ketamine and xylazine. The abdomen and peritoneum were then incised, and the small intestine was exposed on a sterile gauze pad. Manipulation was performed from the duodenum to the cecum for 5 minutes by using a sterile cotton swab. After surgery, the abdomen was sutured and the mice were allowed to recover for 4 hours in a cage maintained at 32 degrees.
Triazole compounds (10 mg/kg, 20 mg/kg and 30 mg/kg) were orally administered 20 hours after POI surgery. […] After 30 minutes, the stomach of the mouse was removed and put into a 0.1N NaOH 2 ml solution to homogenize same. 3 ml of 0.1N NaOH solution was added and centrifuged at 3000 rpm at 4 degrees for 10 minutes. After adding […] of 20% trichloroacetic acid to the supernatant, the mixture was centrifuged at 3000 rpm at 4 degrees for 10 minutes. […] The percentage of the gastric emptying delay was calculated by (1−(absorbance of test sample)/(baseline control absorbance)×100.

[3] = test system: cancer cachexia mouse model; assay: Cancer cachexia mouse model (CT26): grip test, Rota-rod test, cancer size, body weight, feed intake, fat and muscle weight; type: in vivo; details: cancer cachexia mice; for body weight / cancer size / muscle mass / subcutaneous fat weight / total fat weight / visceral fat weight / daily feed intake: oral 10 mg/kg daily; for muscle mass / subcutaneous fat weight / total fat weight / visceral fat weight: 20th day
Description: Cultured 1×10^6 cells were subcutaneously injected into the right side of the abdomen of 10-week-old mice. The size of the cancer grown in the right abdomen, body weight, and feed intake were measured once every time after cell injection, and 10 mg/kg of a triazole compound was orally administered daily from the 9th day. On the 18th day of cancer cell injection, each of the grip test and Rota-rod test for evaluating the muscle function was performed for 1 day. On the 20th day, subcutaneous fat, visceral fat and muscle (femur, calf) of the mouse were separated and weighed.
For the evaluation of muscle function, the grip test was performed by holding the mouse by having the mouse hold the metal grid attached to the grip strength meter, holding the tail of the mouse, and pulling it from behind horizontally. The force applied to the metal grid immediately before losing the grip was recorded in the measuring instrument as the maximum tension in g, and the entire process was performed 9 times per subject to record the average value. In the Rota-rod test (Ugo Basile, Comerio, VA, Italy), Rota-rod exercise was performed at least three times at a rotational speed of 4 rpm by using a machine equipped with a rod with the diameter of 3 cm appropriately processed to provide grip to measure the endurance time of the tested animals in seconds and record the average value. Each Rota-rod behavior test was not to exceed 5 minutes per time.

[4] = test system: postoperative ileus (POI) mouse model; assay: Colon transit time of feces in postoperative ileus (POI) mouse model; type: in vivo; details: POI mice; for colon transit time of feces: oral 30 mg/kg 4 hours after POI surgery; for colon transit time of feces / feed intake: vs PBS; for body weight / feed intake: 24 hours
Description: as §1
To evaluate the colon transit time of feces, 200 ul of trypan blue dye was injected into the proximal colon before suturing after POI surgery. A triazole compound (30 mg/kg) was orally administered 4 hours after POI surgery. The mouse was transferred to a metabolic cage, and the weighed feed was administered thereinto, and the time at which the first feces stained with trypan blue appeared was measured for 24 hours. At the 24th hour, the number and weight of feces were measured, and the weight of the consumed feed and the mouse's body weight were measured.

[5] = target: T1, ghrelin receptor; assay: G protein coupled receptor agonist analysis (Eurofins Discovery), ghrelin receptor; type: cell-based; parameters: Eurofins Discovery; dose or concentration left out as unconfirmed; details: compound alone (agonist effect)
Description: (§2) The efficacy of triazole compounds […] as agonists and antagonists for a total of 170 types of G protein-coupled receptors was performed by Eurofins Discovery.
(§3) The family of G protein-coupled receptors comprises many types of receptors comprising a ghrelin receptor. It was checked whether or not the triazole compounds have efficacy as agonists or antagonists of different types of G protein-coupled receptors.
Target sequence in this assay (Q92847 whole entry, species assumed): as the sequence (Q92847 whole entry) above

[6] = test system: 170 G protein-coupled receptors; assay: G protein coupled receptor agonist and antagonist analysis, panel of 170 receptors (Eurofins Discovery); type: cell-based; parameters: dose or concentration left out as unconfirmed; details: alone (agonist effect) or together with ligands for each receptor (antagonist effect)
Description: as §2, §3

SMILES	EC50 [1] [nM]	delayed gastric emptying [2]	body weight [3]	cancer size [3]	muscle mass ([3]; vs Vehicle)	subcutaneous fat weight ([3]; vs Vehicle)	total fat weight ([3]; vs Vehicle)	visceral fat weight ([3]; vs Vehicle)	daily feed intake ([3]; vs Vehicle)	muscle strength function (Grip test and Rota-rod test) ([3]; oral 10 mg/kg once daily from 9th day, tested 18th day, vs Vehicle)	colon transit time of feces [4]	body weight ([4]; oral 30 mg/kg)	feed intake ([4]; oral 30 mg/kg)	efficacy as a ghrelin receptor agonist [5] [%]	specificity among 170 G protein-coupled receptors (agonist or antagonist efficacy) [6]	number and weight of feces ([4]; oral 30 mg/kg, at the 24th hour)
CCCCCCCCCCCCn1cc(C(N)(CO)CO)nn1 [KARI001, 2-amino-2-(1-dodecyl-1H-1,2,3-triazol-4-yl)propane-1,3-diol]	128	–	–	–	–	–	–	–	–	–	–	–	–	–	–	–
CCCCCCCCCCn1cc(C(N)(CO)CO)nn1 [KARI101, 2-amino-2-(1-decyl-1H-1,2,3-triazol-4-yl) propane-1,3-diol]	189	significant improvement	did not affect	did not affect	increased	increased	increased	increased	increased	significantly improved	significantly reduced	no change	increased	–	–	–
CCCCCCCCCn1cc(C(N)(CO)CO)nn1 [KARI201, 2-amino-2-(1-nonyl-1H-1,2,3-triazol-4-yl)propane-1,3-diol]	–	significant improvement	did not affect	did not affect	increased	increased	increased	increased	increased	–	significantly reduced	no change	increased	83.7	ghrelin receptor-specific agonist	increased
